These results are taken from PMC12620416 (Molecular Plant Pathology, 2025).

≈ marks a conversion by molar mass, not a printed value.

Test [1] has as its system Xanthomonas oryzae pv. oryzae (Xoo) PXO99A. Briefly: microbe, parasite or virus in culture. The conditions noted are these: read-out: EC50 (mg/L).
Test [2] concerns the target T1, ISXoo15 transposase (Xanthomonas oryzae, UniProt A0A0K0GFE1).
T1 construct: gene PXO_03433
Briefly: biochemical.

T1 sequence (A0A0K0GFE1 1-315): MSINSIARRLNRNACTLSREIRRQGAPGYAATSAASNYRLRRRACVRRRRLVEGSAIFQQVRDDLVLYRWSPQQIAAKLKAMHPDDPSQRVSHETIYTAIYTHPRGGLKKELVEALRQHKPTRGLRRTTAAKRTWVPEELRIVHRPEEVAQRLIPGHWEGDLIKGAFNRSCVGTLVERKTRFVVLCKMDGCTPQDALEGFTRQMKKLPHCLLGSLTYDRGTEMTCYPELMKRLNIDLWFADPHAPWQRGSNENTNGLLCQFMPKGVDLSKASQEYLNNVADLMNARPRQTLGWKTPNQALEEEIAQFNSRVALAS

Consider `C=C[C@]1(C)C[C@@H](OC(=O)CSc2ncc(OC)c(OS(=O)(=O)CC)n2)[C@]2(C)[C@H](C)CC[C@]3(CCC(=O)[C@H]32)[C@@H](C)[C@@H]1O` [J1], for which, in test [1], the EC50 was determined as 0.41 ± 0.15 mg/L (≈ 0.671 µM).

Turning to `C=C[C@]1(C)C[C@@H](OC(=O)CSc2ncc(OC)c(OS(=O)(=O)c3ccc(C)cc3)n2)[C@]2(C)[C@H](C)CC[C@]3(CCC(=O)[C@H]32)[C@@H](C)[C@@H]1O` [J2], the EC50 in test [1] turned out to be 0.26 ± 0.17 mg/L (≈ 0.386 µM).

As for `C=C[C@]1(C)C[C@@H](OC(=O)CSc2ncc(OC)c(OS(=O)(=O)c3ccc(C(F)(F)F)cc3)n2)[C@]2(C)[C@H](C)CC[C@]3(CCC(=O)[C@H]32)[C@@H](C)[C@@H]1O` [J3], in test [1], the EC50 worked out at 0.81 ± 0.08 mg/L (≈ 1.11 µM).

Consider `C=C[C@]1(C)C[C@@H](OC(=O)CSc2ncc(OC)c(OS(=O)(=O)c3c(F)cccc3F)n2)[C@]2(C)[C@H](C)CC[C@]3(CCC(=O)[C@H]32)[C@@H](C)[C@@H]1O` [J4], for which, in test [1], the EC50 was 0.34 ± 0.04 mg/L (≈ 0.489 µM).

Regarding `C=C[C@]1(C)C[C@@H](OC(=O)CSc2ncc(OC)c(OS(=O)(=O)c3c(F)c(F)c(F)c(F)c3F)n2)[C@]2(C)[C@H](C)CC[C@]3(CCC(=O)[C@H]32)[C@@H](C)[C@@H]1O` [J5], the EC50 in test [1] is 0.77 ± 0.56 mg/L (≈ 1.03 µM).

As to `C=C[C@]1(C)C[C@@H](OC(=O)CSc2ncc(OC)c(OS(=O)(=O)c3c(C)c(C)c(C)c(C)c3C)n2)[C@]2(C)[C@H](C)CC[C@]3(CCC(=O)[C@H]32)[C@@H](C)[C@@H]1O` [J6], the EC50 in test [1] was 0.33 ± 0.09 mg/L (≈ 0.453 µM).

For `C=C[C@]1(C)C[C@@H](OC(=O)CSc2ncc(OC)c(OS(=O)(=O)c3cccc(Br)c3)n2)[C@]2(C)[C@H](C)CC[C@]3(CCC(=O)[C@H]32)[C@@H](C)[C@@H]1O` [J7], the EC50 in test [1] is 0.27 ± 0.11 mg/L (≈ 0.366 µM).

As usually defined, the Kd is the equilibrium constant for the complex coming apart. Take `C=C[C@]1(C)C[C@@H](OC(=O)CSc2ncc(OC)c(O)n2)[C@]2(C)[C@H](C)CC[C@]3(CCC(=O)[C@H]32)[C@@H](C)[C@@H]1O` [J9]: in test [1], the EC50 came out at 0.12 ± 0.02 mg/L (≈ 0.231 µM). Binding in test [2] was characterised by a dissociation constant (Kd) of 187 nM.

As for `C=C[C@]1(C)C[C@@H](OC(=O)CSc2ncc(OC)c(OS(=O)(=O)c3cccc(F)c3)n2)[C@]2(C)[C@H](C)CC[C@]3(CCC(=O)[C@H]32)[C@@H](C)[C@@H]1O` [J10], the EC50 in test [1] turned out to be 0.2 ± 0.13 mg/L (≈ 0.295 µM).

With `C=C[C@]1(C)C[C@@H](OC(=O)CSc2ncc(OC)c(OS(=O)(=O)c3ccc(Br)cc3OC(F)(F)F)n2)[C@]2(C)[C@H](C)CC[C@]3(CCC(=O)[C@H]32)[C@@H](C)[C@@H]1O` [J11], the EC50 in test [1] amounted to 0.39 ± 0.27 mg/L (≈ 0.475 µM).

Regarding `C=C[C@]1(C)C[C@@H](OC(=O)CSc2ncc(OC)c(OS(=O)(=O)c3cccc(Cl)c3F)n2)[C@]2(C)[C@H](C)CC[C@]3(CCC(=O)[C@H]32)[C@@H](C)[C@@H]1O` [J12], in test [1], the EC50 amounted to 0.26 ± 0.12 mg/L (≈ 0.366 µM).

On to `C=C[C@]1(C)C[C@@H](OC(=O)CSc2ncc(OC)c(OS(=O)(=O)c3cc(Br)c(F)cc3F)n2)[C@]2(C)[C@H](C)CC[C@]3(CCC(=O)[C@H]32)[C@@H](C)[C@@H]1O` [J13], for which the EC50 in test [1] amounted to 0.22 ± 0.05 mg/L (≈ 0.284 µM).

In the case of `C=C[C@]1(C)C[C@@H](OC(=O)CSc2ncc(OC)c(OS(=O)(=O)c3ccc(Cl)cc3Br)n2)[C@]2(C)[C@H](C)CC[C@]3(CCC(=O)[C@H]32)[C@@H](C)[C@@H]1O` [J14], the EC50 in test [1] was found to be 0.3 ± 0.02 mg/L (≈ 0.389 µM).

Turning to `C=C[C@]1(C)C[C@@H](OC(=O)CSc2ncc(OC)c(OS(=O)(=O)C3CC3)n2)[C@]2(C)[C@H](C)CC[C@]3(CCC(=O)[C@H]32)[C@@H](C)[C@@H]1O` [J15], the EC50 in test [1] was determined as 0.37 ± 0.09 mg/L (≈ 0.594 µM).

Take `C=C[C@]1(C)C[C@@H](OC(=O)CSc2ncc(OC)c(OS(=O)(=O)c3ccc(F)cc3)n2)[C@]2(C)[C@H](C)CC[C@]3(CCC(=O)[C@H]32)[C@@H](C)[C@@H]1O` [J16]: the EC50 in test [1] was 0.26 ± 0.03 mg/L (≈ 0.384 µM).

In the case of `C=C[C@]1(C)C[C@@H](OC(=O)CSc2ncc(OC)c(OS(=O)(=O)c3ccc(F)c(F)c3F)n2)[C@]2(C)[C@H](C)CC[C@]3(CCC(=O)[C@H]32)[C@@H](C)[C@@H]1O` [J17], the EC50 in test [1] was 0.22 ± 0.09 mg/L (≈ 0.309 µM).

With `C=C[C@]1(C)C[C@@H](OC(=O)CSc2ncc(OC)c(OS(=O)(=O)c3ccc(C#N)cc3)n2)[C@]2(C)[C@H](C)CC[C@]3(CCC(=O)[C@H]32)[C@@H](C)[C@@H]1O` [J18], in test [1], the EC50 turned out to be 0.29 ± 0.09 mg/L (≈ 0.424 µM).

For `C=C[C@]1(C)C[C@@H](OC(=O)CSc2ncc(OC)c(OS(=O)(=O)c3c(C)cc(C)cc3C)n2)[C@]2(C)[C@H](C)CC[C@]3(CCC(=O)[C@H]32)[C@@H](C)[C@@H]1O` [J19], the EC50 in test [1] came out at 0.16 ± 0.06 mg/L (≈ 0.228 µM).

On to `C=C[C@]1(C)C[C@@H](OC(=O)CSc2ncc(OC)c(OS(=O)(=O)c3c(C)c(C)cc(C)c3C)n2)[C@]2(C)[C@H](C)CC[C@]3(CCC(=O)[C@H]32)[C@@H](C)[C@@H]1O` [J20], for which the EC50 in test [1] was 0.35 ± 0.06 mg/L (≈ 0.49 µM).

Take `C=C[C@]1(C)C[C@@H](OC(=O)CSc2ncc(OC)c(OS(=O)(=O)CCCC)n2)[C@]2(C)[C@H](C)CC[C@]3(CCC(=O)[C@H]32)[C@@H](C)[C@@H]1O` [J21]: in test [1], the EC50 is 2.79 ± 0.39 mg/L (≈ 4.37 µM).

Take `C=C[C@]1(C)C[C@@H](OC(=O)CSc2ncc(OC)c(OS(=O)(=O)c3ccc(Cl)cc3)n2)[C@]2(C)[C@H](C)CC[C@]3(CCC(=O)[C@H]32)[C@@H](C)[C@@H]1O` [J22]: the EC50 in test [1] was found to be 0.34 ± 0.17 mg/L (≈ 0.49 µM).

For the compound `C=C[C@]1(C)C[C@@H](OC(=O)CSc2ncc(OC)c(OS(=O)(=O)c3ccc(CC)cc3)n2)[C@]2(C)[C@H](C)CC[C@]3(CCC(=O)[C@H]32)[C@@H](C)[C@@H]1O` [J23], in test [1], the EC50 was found to be 0.58 ± 0.07 mg/L (≈ 0.844 µM).

As to `C=C[C@]1(C)C[C@@H](OC(=O)CSc2ncc(OC)c(OS(=O)(=O)c3ccc(OC(F)(F)F)cc3)n2)[C@]2(C)[C@H](C)CC[C@]3(CCC(=O)[C@H]32)[C@@H](C)[C@@H]1O` [J24], the EC50 in test [1] was determined as 0.26 ± 0.05 mg/L (≈ 0.35 µM).
